In US9926588B2, “Method for testing and screening P38 MAP kinase modifiers” (THE TRUSTEES OF THE UNIVERSITY OF PENNSYLVANIA, priority 2007, dated 2018):

Columns and labels:
p38 MAPK = experiment: Effect of p38 MAPK activators and inhibitors on SMN complex components relocalization under protein synthesis inhibition; format: cell-based; conditions: for SMN accumulation in the nucleus in the presence of a protein synthesis inhibitor: with a protein synthesis inhibitor such as cycloheximide
Experimental: (§1) HeLa PV were cultured in Dulbecco's modified Eagle's medium (Invitrogen) supplemented with 10% fetal bovine serum (Invitrogen). For screening, cells were seeded onto 384-well plates or, for specific experiments, on glass coverslips the day before treatment. Compounds were added directly into the culture medium to the indicated concentration and the cells were then maintained at 37° C. in a 5% CO2 humidified atmosphere for the duration of the treatment. Dispensing of compounds and other automatic liquid handling steps were performed with a Beckman FX multi-channel system equipped with Hudson Crane robotic systems.
(§2) Indirect immunofluorescence on HeLa PV cells was performed as follows: HeLa cells, plated on glass coverslips, were briefly washed with PBS, fixed in 2% formaldehyde/PBS for 20 minutes at room temperature, permeabilized in 0.5% Triton X-100/PBS for 5 min at room temperature. Cells were blocked in 3% bovine serum albumin for 1 hour at room temperature. Double-label immunofluorescence experiments were performed by separate sequential incubations of each primary antibody, diluted in PBS containing 3% bovine serum albumin, followed by the specific secondary coupled to fluorescein isothiocyanate or TXRD. All incubations were at room temperature for 1 hour. Indirect epifluorescence microscopy was performed with a Nikon Eclipse E800 microscope. Digital images were collected with a Cook Sensicam high performance camera and processed with the IP laboratory software. Processing of samples for immunofluorescence microscopy on cells cultured in 384-well plates was automated and performed with the aid of microplate washers (ELX405, Bio-Tek) in a similar manner to that previously used for individual samples on glass slides. The cells were also stained with DAPI to allow definition of the nucleus in each cell. Digital images were acquired with an automated microscopy and analysis system (IN Cell Analyzer 1000, GE Healthcare). Images were analyzed using automated algorithms with parameters set to calculate mean pixel intensity in each nucleus (defined by DAPI staining and acquired in a separate channel), cytoplasm, and total cell, as well as the relevant calculated ratios of these values.
Next, the effect of p38 MAPK activators and inhibitors on SMN complex components relocalization under conditions of protein synthesis inhibition was monitored.

[1] = test system: SMN sub-cellular localization in HeLa PV cells; experiment: SMN sub-cellular localization by indirect immunofluorescence (anti-SMN 2B1); format: cell-based; conditions: for redistribution of SMN from the cytoplasm to the nucleus (accumulation of SMN in the nucleus): short treatment (2-6 hours); for concentration dependence of the effect on nuclear localization of SMN: HeLa cells (CHX FIG. 3b; VPA 2-10 mM FIG. 5b); for immunostaining of SMN showing nuclear accumulation (FIG. 8): emetine, puromycin, thapsigargin 10 μM, tunicamycin 10 μg/ml; for nuclear translocation of SMN at longer times: >24 hr (FIG. 5a)
Experimental: as §1
(§3) The following mouse monoclonal antibodies were used for indirect immunofluorescence: 2B1 (anti-SMN), 2E17 (anti-Gemin2), 12H12 (anti-Gemin3), 10G11 (anti-Gemin5), 6E2 (anti-Gemin7), 10E10 (anti-PABP), 6BG10 (anti-FXR1), Y12 (anti-Sm) and 9H10 (anti-hnRNP A1). An affinity-purified rabbit polyclonal antibody was used to detect Gemin6.
as §2
Based on the results obtained in Example 1, a library of ˜5,000 biologically active small molecules was screened on HeLa cells in 384-well plates. Each well was incubated with a different compound (at 10 μM) and the cells were processed for indirect immunofluorescence. Digital images were collected from six fields in each well and analyzed using imaging algorithms for multiple parameters including relative nuclear and cytoplasmic intensities, and number, size and signal intensity of Gems. DAPI-stained images were collected in a separate channel to define the boundary of each nucleus. Images of individual fields in wells were flagged by the software as showing a significant change in SMN sub-cellular localization. These individual wells were examined directly, and active compounds were re-tested for verification (FIG. 2).

[2] = test system: hnRNP A1, PABP, FXR1 and snRNPs localization in HeLa cells; experiment: Localization of other nuclear and cytoplasmic proteins (specificity); format: cell-based; conditions: 6 hrs of 10 μM CHX (FIG. 3c)
Experimental: as §3
(§4) Indirect immunofluorescence on HeLa PV cells was performed as follows: HeLa cells, plated on glass coverslips, were briefly washed with PBS, fixed in 2% formaldehyde/PBS for 20 minutes at room temperature, permeabilized in 0.5% Triton X-100/PBS for 5 min at room temperature. Cells were blocked in 3% bovine serum albumin for 1 hour at room temperature. Double-label immunofluorescence experiments were performed by separate sequential incubations of each primary antibody, diluted in PBS containing 3% bovine serum albumin, followed by the specific secondary coupled to fluorescein isothiocyanate or TXRD. All incubations were at room temperature for 1 hour. Indirect epifluorescence microscopy was performed with a Nikon Eclipse E800 microscope. […] Images were analyzed using automated algorithms with parameters set to calculate mean pixel intensity in each nucleus (defined by DAPI staining and acquired in a separate channel), cytoplasm, and total cell, as well as the relevant calculated ratios of these values.

HeLa cells = experiment: Cell viability / toxicity of treated cells; conditions: overnight treatment with 10 μM CHX
[3] = test system: Gemins 2, 3, 5, 6 and 7 localization in HeLa cells; experiment: Immunostaining of Gemins (SMN complex components) in treated cells; format: cell-based
Experimental: as §3
as §4, with “values. […]” for “values.”

COc1ccc(C[C@H]2NC[C@H](O)[C@H]2OC(C)=O)cc1 [Anisomycin]
localization of SMN complex components, Anisomycin alone (p38 MAPK; treated cell (FIG. 6: 1 μg/ml Anisomycin)): accumulate in the cytoplasm
SMN accumulation in the nucleus in the presence of a protein synthesis inhibitor (p38 MAPK): inhibit SMN accumulation in the nucleus

Oc1ccc(-c2nc(-c3ccncc3)c(-c3ccc(F)cc3)[nH]2)cc1 [SB202190]
localization of SMN complex components, p38 MAPK inhibitor combined with Anisomycin (p38 MAPK; 10 μM SB202190 + 1 μg/ml Anisomycin, HeLa cells, FIG. 6): accumulation of SMN complex components in the nucleus
localization of SMN complex components, p38 MAPK inhibitor combined with CHX (p38 MAPK; 10 μM SB202190 + 10 μM CHX, HeLa cells, FIG. 6): accumulation of SMN complex components in the nucleus

CCOC(=O)CN1C(=O)CC(C[C@@H](O)[C@@H]2C[C@@H](C)C[C@H](C)C2=O)CC1=O [cycloheximide-N-ethylethanoate]
redistribution of SMN from the cytoplasm to the nucleus (accumulation of SMN in the nucleus) ([1]; HeLa cells): did not show any effect

C[C@@H]1C[C@@H]([C@H](O)CC2CC(=O)NC(=O)C2)C(=O)[C@@H](C)C1 [cycloheximide]
localization of other nuclear and cytoplasmic proteins (hnRNP A1, PABP, FXR1, snRNPs) [2]: not significantly affected
cell viability (HeLa cells): no reduction in cell viability
treatment time after which little SMN was detected in the cytoplasm ([1]; HeLa cells): ≥ 8 h
treatment time after which the effect on SMN redistribution was evident ([1]; HeLa cells): 2 h
concentration dependence of the effect on nuclear localization of SMN [1]: concentration-dependent
concentrations exhibiting a clear effect on redistribution of SMN from the cytoplasm to the nucleus ([1]; HeLa cells, FIG. 3a,b): 0.1 to 40 µM
redistribution of SMN from the cytoplasm to the nucleus (accumulation of SMN in the nucleus) ([1]; HeLa cells): most striking accumulation of SMN in the nucleus
reversibility of SMN nuclear accumulation ([1]; cells washed and placed in fresh medium devoid of cycloheximide): reversible
relocation of SMN complex components (Gemins) to the nucleus ([3]; HeLa cells, 6 hours 10 μM CHX (FIG. 4), Gemin3 and Gemin5 excepted): causes most of the components of the SMN complex to accumulate in the nucleus

CC[C@H]1CN2CCc3cc(OC)c(OC)cc3[C@@H]2C[C@@H]1C[C@H]1NCCc2cc(OC)c(OC)cc21 [emetine]
redistribution of SMN from the cytoplasm to the nucleus (accumulation of SMN in the nucleus) ([1]; HeLa cells): showed the same effect as cycloheximide
immunostaining of SMN showing nuclear accumulation (FIG. 8) ([1]; HeLa cells): nuclear accumulation

COc1ccc(C[C@H](N)C(=O)N[C@H]2[C@@H](O)[C@H](n3cnc4c(N(C)C)ncnc43)O[C@@H]2CO)cc1 [puromycin]
redistribution of SMN from the cytoplasm to the nucleus (accumulation of SMN in the nucleus) ([1]; HeLa cells): showed the same effect as cycloheximide
immunostaining of SMN showing nuclear accumulation (FIG. 8) ([1]; HeLa cells): nuclear accumulation

O=C(CCCCCN1C(=O)c2cccc3cccc(c23)C1=O)NO [scriptaid]
nuclear translocation of SMN at longer times ([1]; HeLa cells): caused the same effect as protein synthesis inhibitors

C/C=C(/C)C(=O)O[C@H]1C(C)=C2[C@H]([C@@H]1OC(=O)CCCCCCC)[C@@](C)(OC(C)=O)C[C@H](OC(=O)CCC)[C@@]1(O)[C@H]2OC(=O)[C@@]1(C)O [thapsigargin]
redistribution of SMN from the cytoplasm to the nucleus (accumulation of SMN in the nucleus) ([1]; HeLa cells): caused SMN to accumulate in the nucleus
immunostaining of SMN showing nuclear accumulation (FIG. 8) ([1]; HeLa cells): nuclear accumulation

CC(/C=C/C(=O)NO)=C\[C@@H](C)C(=O)c1ccc(N(C)C)cc1 [trichostatin A]
nuclear translocation of SMN at longer times ([1]; HeLa cells): caused the same effect as protein synthesis inhibitors

CCCC(CCC)C(=O)O [valproic acid]
concentration dependence of the effect on nuclear localization of SMN [1]: clear concentration dependence effect
nuclear translocation of SMN at longer times ([1]; HeLa cells): caused the same effect as protein synthesis inhibitors
localization of Gemin3 and Gemin5 ([3]; 24 hour treatment with VPA (FIG. 5c)): remain predominantly cytoplasmic

TNFα
localization of SMN complex component, p38 MAPK activator combined with CHX (p38 MAPK; 150 ng/ml TNFα + 10 μM CHX, HeLa cells, FIG. 6): still remained in the cytoplasm
localization of SMN complex components, p38 MAPK activator alone (p38 MAPK; 150 ng/ml TNFα, HeLa cells, FIG. 6): accumulation of SMN complex components in the cytoplasm
SMN accumulation in the nucleus in the presence of a protein synthesis inhibitor (p38 MAPK): inhibit SMN accumulation in the nucleus

tunicamycin
redistribution of SMN from the cytoplasm to the nucleus (accumulation of SMN in the nucleus) ([1]; HeLa cells): caused SMN to accumulate in the nucleus
immunostaining of SMN showing nuclear accumulation (FIG. 8) ([1]; HeLa cells): nuclear accumulation
